According to patent publication US20150030642A1, “POLYMER MICRO-NEEDLE ARRAY CHIP, PREPARATION PROCESS AND USE THEREOF” (Technical Institute of Physics and Chemistry of the Chinese …, priority 2012, published 2015):

What was measured:
[1] = Journal of Pharmaceutical Sciences, 1998, 87, 922-925; cited from earlier work
[2] = tested on: pigskin used for simulated human skin
Description: Freezing pigskin used for simulated human skin was thawed; sites of pesticide application were cleaned and disinfected after thawed;

Row | Molecule | transdermal permeability speed, micro-needle versus traditional transdermal drug delivery [1] | penetration of skin [2]
1 | O=C(O)CN(CC(=O)O)Cc1cc2c(cc1O)Oc1cc(O)c(CN(CC(=O)O)CC(=O)O)cc1C21OC(=O)c2ccccc21 [calcein] | increased by four orders of magnitude | –
2 | bovine serum albumin | – | could penetrate the skin
